Each block holds one substance with its values, some of them ahead of it.
Legend:
Escherichia coli [1] = assay: Antimicrobial activity against Escherichia coli ATCC 25922 after 24 hrs by NCCLS-protocol based assay; type: functional; details: ATCC 25922, 24 h
Escherichia coli [2] = assay: Antimicrobial activity against Escherichia coli UB1005 after 24 hrs by NCCLS-protocol based assay; type: functional; details: UB1005, 24 h
Escherichia coli [3] = assay: Antimicrobial activity against Escherichia coli 078 after 24 hrs by NCCLS-protocol based assay; type: functional; details: Escherichia coli, 078, 24 h
Escherichia coli [4] = assay: Antimicrobial activity against Escherichia coli K88 after 24 hrs by NCCLS-protocol based assay; type: functional; details: K88, 24 h
Escherichia coli [5] = assay: Antimicrobial activity against Escherichia coli K99 after 24 hrs by NCCLS-protocol based assay; type: functional; details: K99, 24 h
Pseudomonas aeruginosa [6] = assay: Antimicrobial activity against Pseudomonas aeruginosa ATCC 27853 after 24 hrs by NCCLS-protocol based assay; type: functional; details: ATCC 27853, 24 h
Pseudomonas aeruginosa [7] = assay: Antimicrobial activity against Pseudomonas aeruginosa PAO1 after 24 hrs by NCCLS-protocol based assay; type: functional; details: PAO1, 24 h
Pseudomonas aeruginosa [8] = assay: Antimicrobial activity against Pseudomonas aeruginosa CICC 21630 clinical isolates after 24 hrs by NCCLS-protocol based assay; type: functional; details: CICC 21630, 24 h
Pseudomonas aeruginosa [9] = assay: Antimicrobial activity against Pseudomonas aeruginosa 26305 clinical isolates after 24 hrs by NCCLS-protocol based assay; type: functional; details: Pseudomonas aeruginosa, 26305, 24 h
Pseudomonas aeruginosa [10] = assay: Antimicrobial activity against Pseudomonas aeruginosa CICC 21625 clinical isolates after 24 hrs by NCCLS-protocol based assay; type: functional; details: CICC 21625, 24 h
Pseudomonas aeruginosa [11] = assay: Antimicrobial activity against Pseudomonas aeruginosa 25349 clinical isolates after 24 hrs by NCCLS-protocol based assay; type: functional; details: Pseudomonas aeruginosa, 25349, 24 h
Salmonella typhimurium [12] = assay: Antimicrobial activity against Salmonella typhimurium ATCC 14028 after 24 hrs by NCCLS-protocol based assay; type: functional, Salmonella enterica subsp. enterica serovar Typhimurium; details: Salmonella enterica, ATCC 14028, 24 h
Salmonella typhimurium [13] = assay: Antimicrobial activity against Salmonella typhimurium C7731 after 24 hrs by NCCLS-protocol based assay; type: functional, Salmonella enterica subsp. enterica serovar Typhimurium; details: Salmonella enterica, C7731, 24 h
[14] = Antimicrobial activity against Salmonella pullorum C7913 after 24 hrs by NCCLS-protocol based assay; type: functional, Salmonella enterica subsp. enterica serovar Pullorum; details: Salmonella enterica, C7913, 24 h
Acinetobacter baumannii [15] = assay: Antimicrobial activity against Acinetobacter baumannii after 24 hrs by NCCLS-protocol based assay; type: functional
Klebsiella pneumoniae [16] = assay: Antimicrobial activity against Klebsiella pneumoniae after 24 hrs by NCCLS-protocol based assay; type: functional
Escherichia coli [17] = assay: Bactericidal activity against Escherichia coli ATCC 25922 incubated for 4 hrs followed by culture spread on agar plates and cultured overnight; type: functional; details: ATCC 25922, 4 h, read-out: MBC>99.9
Escherichia coli [18] = assay: Bactericidal activity against Escherichia coli ATCC 25922 incubated for 4 hrs followed by culture spread on agar plates and cultured overnight in presence of NaCl; type: functional; details: ATCC 25922, 4 h, read-out: MBC>99.9
Escherichia coli [19] = assay: Bactericidal activity against Escherichia coli ATCC 25922 incubated for 4 hrs followed by culture spread on agar plates and cultured overnight in presence of KCl; type: functional; details: ATCC 25922, 4 h, read-out: MBC>99.9
Escherichia coli [20] = assay: Bactericidal activity against Escherichia coli ATCC 25922 incubated for 4 hrs followed by culture spread on agar plates and cultured overnight in presence of CaCl2; type: functional; details: ATCC 25922, 4 h, read-out: MBC>99.9
Escherichia coli [21] = assay: Bactericidal activity against Escherichia coli ATCC 25922 incubated for 4 hrs followed by culture spread on agar plates and cultured overnight in presence of ZnCl2; type: functional; details: ATCC 25922, 4 h, read-out: MBC>99.9
Escherichia coli [22] = assay: Bactericidal activity against Escherichia coli ATCC 25922 incubated for 4 hrs followed by culture spread on agar plates and cultured overnight in presence of FeCl3; type: functional; details: ATCC 25922, 4 h, read-out: MBC>99.9
Escherichia coli [23] = assay: Bactericidal activity against Escherichia coli ATCC 25922 incubated for 4 hrs followed by culture spread on agar plates and cultured overnight in presence of NH4Cl; type: functional; details: ATCC 25922, 4 h, read-out: MBC>99.9
Escherichia coli [24] = assay: Bactericidal activity against Escherichia coli ATCC 25922 incubated for 4 hrs followed by culture spread on agar plates and cultured overnight in presence of MgCl2; type: functional; details: ATCC 25922, 4 h, read-out: MBC>99.9
Escherichia coli [25] = assay: Bactericidal activity against Escherichia coli ATCC 25922 incubated for 4 hrs followed by culture spread on agar plates and cultured overnight in presence of 50% serum albumin; type: functional; details: ATCC 25922, 4 h, read-out: MBC>99.9
Escherichia coli [26] = assay: Bactericidal activity against Escherichia coli ATCC 25922 incubated for 4 hrs followed by culture spread on agar plates and cultured overnight in presence of 25% serum albumin; type: functional; details: ATCC 25922, 4 h, read-out: MBC>99.9
Escherichia coli [27] = assay: Bactericidal activity against Escherichia coli ATCC 25922 incubated for 4 hrs followed by culture spread on agar plates and cultured overnight in presence of 12.5% serum albumin; type: functional; details: ATCC 25922, 4 h, read-out: MBC>99.9
Escherichia coli [28] = assay: Bactericidal activity against Escherichia coli UB1005 incubated for 4 hrs followed by culture spread on agar plates and cultured overnight; type: functional; details: UB1005, 4 h, read-out: MBC>99.9
Escherichia coli [29] = assay: Bactericidal activity against Escherichia coli 078 incubated for 4 hrs followed by culture spread on agar plates and cultured overnight; type: functional; details: Escherichia coli, 078, 4 h; read-out: MBC>99.9
Escherichia coli [30] = assay: Bactericidal activity against Escherichia coli K88 incubated for 4 hrs followed by culture spread on agar plates and cultured overnight; type: functional; details: K88, 4 h, read-out: MBC>99.9
Escherichia coli [31] = assay: Bactericidal activity against Escherichia coli K99 incubated for 4 hrs followed by culture spread on agar plates and cultured overnight; type: functional; details: K99, 4 h, read-out: MBC>99.9
Pseudomonas aeruginosa [32] = assay: Bactericidal activity against Pseudomonas aeruginosa ATCC 27853 incubated for 4 hrs followed by culture spread on agar plates and cultured overnight; type: functional; details: ATCC 27853, 4 h, read-out: MBC>99.9
Pseudomonas aeruginosa [33] = assay: Bactericidal activity against Pseudomonas aeruginosa PAO1 incubated for 4 hrs followed by culture spread on agar plates and cultured overnight; type: functional; details: PAO1, 4 h, read-out: MBC>99.9
Pseudomonas aeruginosa [34] = assay: Bactericidal activity against Pseudomonas aeruginosa CICC 21630 clinical isolates incubated for 4 hrs followed by culture spread on agar plates and cultured overnight; type: functional; details: CICC 21630, 4 h, read-out: MBC>99.9
Pseudomonas aeruginosa [35] = assay: Bactericidal activity against Pseudomonas aeruginosa 26305 clinical isolates incubated for 4 hrs followed by culture spread on agar plates and cultured overnight; type: functional; details: Pseudomonas aeruginosa, 26305, 4 h; read-out: MBC>99.9
Pseudomonas aeruginosa [36] = assay: Bactericidal activity against Pseudomonas aeruginosa CICC 21625 clinical isolates incubated for 4 hrs followed by culture spread on agar plates and cultured overnight; type: functional; details: CICC 21625, 4 h, read-out: MBC>99.9
Pseudomonas aeruginosa [37] = assay: Bactericidal activity against Pseudomonas aeruginosa 25349 clinical isolates incubated for 4 hrs followed by culture spread on agar plates and cultured overnight; type: functional; details: Pseudomonas aeruginosa, 25349, 4 h; read-out: MBC>99.9
Salmonella typhimurium [38] = assay: Bactericidal activity against Salmonella typhimurium ATCC 14028 incubated for 4 hrs followed by culture spread on agar plates and cultured overnight; type: functional, Salmonella enterica subsp. enterica serovar Typhimurium; details: Salmonella enterica, ATCC 14028, 4 h; read-out: MBC>99.9
Salmonella typhimurium [39] = assay: Bactericidal activity against Salmonella typhimurium C7731 incubated for 4 hrs followed by culture spread on agar plates and cultured overnight; type: functional, Salmonella enterica subsp. enterica serovar Typhimurium; details: Salmonella enterica, C7731, 4 h; read-out: MBC>99.9
[40] = Bactericidal activity against Salmonella pullorum C7913 incubated for 4 hrs followed by culture spread on agar plates and cultured overnight; type: functional, Salmonella enterica subsp. enterica serovar Pullorum; details: Salmonella enterica, C7913, 4 h; read-out: MBC>99.9
Acinetobacter baumannii [41] = assay: Bactericidal activity against Acinetobacter baumannii incubated for 4 hrs followed by culture spread on agar plates and cultured overnight; type: functional; details: read-out: MBC>99.9
Klebsiella pneumoniae [42] = assay: Bactericidal activity against Klebsiella pneumoniae incubated for 4 hrs followed by culture spread on agar plates and cultured overnight; type: functional; details: read-out: MBC>99.9

MIC95 (Escherichia coli [1]): 2 µM
MIC95 (Escherichia coli [2]): 2 µM
MIC95 (Escherichia coli [3]): 2 µM
MIC95 (Escherichia coli [4]): 1 µM
MIC95 (Escherichia coli [5]): 2 µM
MIC95 (Pseudomonas aeruginosa [6]): 8 µM
MIC95 (Pseudomonas aeruginosa [7]): 8 µM
MIC95 (Pseudomonas aeruginosa [8]): > 64 µM
MIC95 (Pseudomonas aeruginosa [9]): > 64 µM
MIC95 (Pseudomonas aeruginosa [10]): > 64 µM
MIC95 (Pseudomonas aeruginosa [11]): > 64 µM
MIC95 (Salmonella typhimurium [12]): 4 µM
MIC95 (Salmonella typhimurium [13]): 4 µM
MIC95 [14]: 4 µM
MIC95 (Acinetobacter baumannii [15]): 4 µM
MIC95 (Klebsiella pneumoniae [16]): 16 µM
Substance: H-IRPIIRPIIRPIIRPIIRPIIRPI-NH2
MBC (Escherichia coli [17]): 2 µM
MBC (Escherichia coli [18]): 32 µM
MBC (Escherichia coli [19]): 4 µM
MBC (Escherichia coli [20]): > 128 µM
MBC (Escherichia coli [21]): 4 µM
MBC (Escherichia coli [22]): 8 µM
MBC (Escherichia coli [23]): 8 µM
MBC (Escherichia coli [24]): 8 µM
MBC (Escherichia coli [25]): 64 µM
MBC (Escherichia coli [26]): 32 µM
MBC (Escherichia coli [27]): 16 µM
MBC (Escherichia coli [28]): 2 µM
MBC (Escherichia coli [29]): 2 µM
MBC (Escherichia coli [30]): 1 µM
MBC (Escherichia coli [31]): 4 µM
MBC (Pseudomonas aeruginosa [32]): 16 µM
MBC (Pseudomonas aeruginosa [33]): 16 µM
MBC (Pseudomonas aeruginosa [34]): > 64 µM
MBC (Pseudomonas aeruginosa [35]): > 64 µM
MBC (Pseudomonas aeruginosa [36]): > 64 µM
MBC (Pseudomonas aeruginosa [37]): > 64 µM
MBC (Salmonella typhimurium [38]): 4 µM
MBC (Salmonella typhimurium [39]): 4 µM
MBC [40]: 8 µM
MBC (Acinetobacter baumannii [41]): 8 µM
MBC (Klebsiella pneumoniae [42]): 8 µM

MIC95 (Escherichia coli [1]): > 64 µM
MIC95 (Escherichia coli [2]): > 64 µM
MIC95 (Escherichia coli [3]): > 64 µM
MIC95 (Escherichia coli [4]): > 64 µM
MIC95 (Escherichia coli [5]): > 64 µM
MIC95 (Pseudomonas aeruginosa [6]): > 64 µM
MIC95 (Pseudomonas aeruginosa [7]): > 64 µM
MIC95 (Pseudomonas aeruginosa [8]): > 64 µM
MIC95 (Pseudomonas aeruginosa [9]): > 64 µM
MIC95 (Pseudomonas aeruginosa [10]): > 64 µM
MIC95 (Pseudomonas aeruginosa [11]): > 64 µM
MIC95 (Salmonella typhimurium [12]): > 64 µM
MIC95 (Salmonella typhimurium [13]): > 64 µM
MIC95 [14]: > 64 µM
MIC95 (Acinetobacter baumannii [15]): > 64 µM
MIC95 (Klebsiella pneumoniae [16]): > 64 µM
Substance: H-VKPVVKPVVKPVVKPVVKPVVKPV-NH2
MBC (Escherichia coli [17]): > 64 µM
MBC (Escherichia coli [28]): > 64 µM
MBC (Escherichia coli [29]): > 64 µM
MBC (Escherichia coli [30]): > 64 µM
MBC (Escherichia coli [31]): > 64 µM
MBC (Pseudomonas aeruginosa [32]): > 64 µM
MBC (Pseudomonas aeruginosa [33]): > 64 µM
MBC (Pseudomonas aeruginosa [34]): > 64 µM
MBC (Pseudomonas aeruginosa [35]): > 64 µM
MBC (Pseudomonas aeruginosa [36]): > 64 µM
MBC (Pseudomonas aeruginosa [37]): > 64 µM
MBC (Salmonella typhimurium [38]): > 64 µM
MBC (Salmonella typhimurium [39]): > 64 µM
MBC [40]: > 64 µM
MBC (Acinetobacter baumannii [41]): > 64 µM
MBC (Klebsiella pneumoniae [42]): > 64 µM
